Assay results from PubChem BioAssay AID743423 (Vanderbilt Specialized Chemistry Center, 2014).
The source made the active and inactive calls. How the calls were made is not given here.

Target: Metabotropic glutamate receptor 4 (Homo sapiens) (UniProt Q14833)
Experiment: mGlu4 positive allosteric modulator potency, dose response, selectivity assay for mGlu7/mGlu8 PAM project, CHO Gqi5 cells, Fluo-4 calcium (AID 743423)
Conditions: Fluo-4 calcium fluorescence

Sequence of Metabotropic glutamate receptor 4 (Homo sapiens) (Q14833 whole entry, looked up): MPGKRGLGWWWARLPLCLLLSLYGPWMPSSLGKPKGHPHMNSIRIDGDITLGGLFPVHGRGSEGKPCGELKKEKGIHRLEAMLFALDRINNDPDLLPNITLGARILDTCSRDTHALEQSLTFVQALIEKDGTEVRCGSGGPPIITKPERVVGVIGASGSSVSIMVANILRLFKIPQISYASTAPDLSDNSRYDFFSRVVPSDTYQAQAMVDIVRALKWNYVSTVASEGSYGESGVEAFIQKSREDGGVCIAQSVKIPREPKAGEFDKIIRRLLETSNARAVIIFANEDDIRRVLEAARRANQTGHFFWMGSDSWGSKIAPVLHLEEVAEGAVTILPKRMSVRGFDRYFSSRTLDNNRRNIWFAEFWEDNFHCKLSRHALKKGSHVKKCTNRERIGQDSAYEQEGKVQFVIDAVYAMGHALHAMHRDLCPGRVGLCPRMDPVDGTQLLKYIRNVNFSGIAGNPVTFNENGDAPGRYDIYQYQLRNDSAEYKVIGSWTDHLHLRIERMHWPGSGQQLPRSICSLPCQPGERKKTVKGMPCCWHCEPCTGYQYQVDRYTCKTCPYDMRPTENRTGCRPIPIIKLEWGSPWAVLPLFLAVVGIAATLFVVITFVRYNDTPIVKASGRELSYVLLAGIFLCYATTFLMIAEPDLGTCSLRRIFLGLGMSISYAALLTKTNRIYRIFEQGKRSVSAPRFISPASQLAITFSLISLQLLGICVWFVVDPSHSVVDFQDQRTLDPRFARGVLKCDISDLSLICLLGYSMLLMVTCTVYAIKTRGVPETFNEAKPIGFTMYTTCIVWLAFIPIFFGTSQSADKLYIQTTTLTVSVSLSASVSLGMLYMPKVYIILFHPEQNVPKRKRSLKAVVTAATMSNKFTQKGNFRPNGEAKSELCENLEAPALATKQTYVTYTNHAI

**Q.** `CCOc1ccc(-n2c(C)cc(C(=O)CSCc3ccc(OC)cc3)c2C)cc1` was tested. Which EC50 did it give?
**A.** The EC50 was 10 µM.

**Q.** `COC(=O)c1ccc(-n2c(C)cc(C(=O)COc3ccc(OC(C)=O)cc3)c2C)cc1` was tested. Which EC50 did it give?
**A.** Its EC50 is 10 µM.

**Q.** How did the EC50 turn out when `CC(=O)Nc1ccc(SCC(=O)c2cc(C)n(-c3ccc(S(N)(=O)=O)cc3)c2C)cc1` was run?
**A.** The EC50 was 10 µM.

**Q.** For `CC(=O)Nc1ccc(SCC(=O)c2cc(C)n(-c3cccc(F)c3)c2C)cc1`, which EC50 is on record?
**A.** Its EC50 is 3.3 µM.

**Q.** For `COC(=O)c1ccc(-n2c(C)cc(C(=O)CSCc3ccc(OC)cc3)c2C)cc1`, which EC50 is on record?
**A.** The EC50 was 1 µM.

**Q.** For `COC(=O)c1ccc(-n2c(C)cc(C(=O)CSc3ccc(NC(C)=O)cc3)c2C)cc1`, which EC50 is on record?
**A.** Its EC50 is 3.43 µM.

**Q.** `CCn1c(C)cc(C(=O)CSc2ccc(NC(C)=O)cc2)c1C` was tested. Which EC50 did it give?
**A.** The EC50 was 10 µM.

**Q.** For `COC(=O)c1ccc(-n2c(C)cc(C(=O)COc3ccc(NC(C)=O)cc3)c2C)cc1`, which EC50 is on record?
**A.** Its EC50 is 10 µM.

**Q.** How did the EC50 turn out when `CC(=O)Nc1ccc(SCC(=O)c2cc(C)n(CC3COc4ccccc4O3)c2C)cc1` (stereo not drawn) was run?
**A.** Its EC50 is 2.2 µM.

**Q.** For `CC(=O)Nc1ccc(OCC(=O)c2cc(C)n(-c3ccc(OC(F)F)cc3)c2C)cc1`, which EC50 is on record?
**A.** The EC50 was 10 µM.

**Q.** How did the EC50 turn out when `COC(=O)c1ccc(-n2c(C)cc(C(=O)CSCc3cccc(C)c3)c2C)cc1` was run?
**A.** The EC50 was 10 µM.

**Q.** Which EC50 does the source give for `CC(=O)Nc1ccc(SCC(=O)c2cc(C)n(CC3CCCO3)c2C)cc1` (stereo not drawn) here?
**A.** Its EC50 is 10 µM.

**Q.** For `CC(=O)Nc1ccc(SCC(=O)c2cc(C)n(-c3nc(C)cs3)c2C)cc1`, which EC50 is on record?
**A.** The EC50 was 10 µM.

**Q.** For `COC(=O)c1ccc(-n2c(C)cc(C(=O)CSc3ccc(N(C)C(C)=O)cc3)c2C)cc1`, which EC50 is on record?
**A.** Its EC50 is 10 µM.

**Q.** `COc1ccc(SCC(=O)c2cc(C)n(-c3ccc(OC(F)F)cc3)c2C)cc1` was tested. Which EC50 did it give?
**A.** Its EC50 is 10 µM.

**Q.** Which EC50 does the source give for `CC(=O)Nc1ccc(SCC(=O)c2cc(C)n(CCc3cccs3)c2C)cc1` here?
**A.** Its EC50 is 2.6 µM.

**Q.** For `CCOc1ccc(-n2c(C)cc(C(=O)CSc3ccc(OC)cc3)c2C)cc1`, which EC50 is on record?
**A.** The EC50 was 10 µM.

Same assay, conditions: Fluo-4 calcium fluorescence, at 30 µM (top of the series)

**Q.** Which % glutamate max response does the source give for `CC(=O)Nc1ccc(SCC(=O)c2cc(C)n(-c3ccccc3F)c2C)cc1` here?
**A.** The % glutamate max response was 22.3.

**Q.** For `COc1ccc(CSCC(=O)c2cc(C)n(-c3ccc(OC(F)F)cc3)c2C)cc1`, which “% glutamate max response” value is on record?
**A.** Its value is “inactive”.

**Q.** Which “% glutamate max response” value does the source give for `COC(=O)c1ccc(-n2c(C)cc(C(=O)COc3cccc(N(C)C)c3)c2C)cc1` here?
**A.** Its value is “inactive”.

**Q.** With `Cc1ccc(CSCC(=O)c2cc(C)n(-c3ccc(OC(F)F)cc3)c2C)cc1` as the compound, how does the “% glutamate max response” value read?
**A.** The value was “inactive”.

**Q.** With `CCOc1ccc(-n2c(C)cc(C(=O)CSCc3cccc(C)c3)c2C)cc1` as the compound, how does the “% glutamate max response” value read?
**A.** The value was “inactive”.

**Q.** `COC(=O)c1ccc(-n2c(C)cc(C(=O)CNc3ccc(C(=O)O)cc3)c2C)cc1` was tested. Which “% glutamate max response” value did it give?
**A.** Its value is “inactive”.
